Data on 6 molecules can be found in patent US20030236407A1, “Perfluoroalkyl group-containing micelle-forming triiodoaromatic compounds, process for their production and their use as contrast media” (Schering AG, priority 2002, published 2003).

The data set in a line: Critical micelle formation concentration (CMC) by concentration-dependent determination of the surface tension. Type of data set: physicochemical. The following applies: aqueous solution; from concentration-dependent surface tension. The protocol: The CMC was determined by the concentration-dependent determination of the surface tension. The method is described by, i.a., Elworthy and Mysels; J. Colloid Interface Sci., 21, 331, 1966; Mukerjee, Mysels; The Critical Micelle Conc. Of Aqu. Surfactant Systems, 1971, US National Bureau of Standards and G. Brosowski, M. Rohr, G. Lehmann; Fette, […], Anstrichsmittel [Fats, Soaps, Paints], 75, 335, 1973.
Regarding `O=C(O)CN(C(=O)COCC(=O)N1CCN(S(=O)(=O)C(F)(F)C(F)(F)C(F)(F)C(F)(F)C(F)(F)C(F)(F)C(F)(F)C(F)(F)F)CC1)c1c(I)c(C(=O)N(CC(O)CO)CC(O)CO)c(I)c(C(=O)N(CC(O)CO)CC(O)CO)c1I` (stereo not drawn) [Example 1 e, [{3,5-Bis-[bis-(2,3-dihydroxy-propyl)-carbamoyl]-2,4,6-triiodo-phenyl}-(2-{2-[4-(heptadecafluorooctane-1-sulfonyl)piperazin-1-yl]-2-oxo-ethoxy}-acetyl)-amino]-acetic Acid], the “Critical Micelle Formation Concentration (CMC)” value came out at 6.4e-05 mol/L.
Take `O=C(COCC(=O)N1CCN(S(=O)(=O)C(F)(F)C(F)(F)C(F)(F)C(F)(F)C(F)(F)C(F)(F)C(F)(F)C(F)(F)F)CC1)Nc1c(I)c(C(=O)N(CC(O)CO)CC(O)CO)c(I)c(C(=O)N(CC(O)CO)CC(O)CO)c1I` (stereo not drawn) [Example 2 c]: the “Critical Micelle Formation Concentration (CMC)” value came to 6.2e-05 mol/L.
The same measure for `O=C(O)CN(C(=O)CCC(=O)N1CCN(S(=O)(=O)C(F)(F)C(F)(F)C(F)(F)C(F)(F)C(F)(F)C(F)(F)C(F)(F)C(F)(F)F)CC1)c1c(I)c(C(=O)N(CC(O)CO)CC(O)CO)c(I)c(C(=O)N(CC(O)CO)CC(O)CO)c1I` (stereo not drawn) [Example 3 e, [{3,5-Bis-[bis-(2,3-dihydroxy-propyl)-carbamoyl]-2,4,6-triiodo-phenyl}-{4[4-(heptadecafluorooctane-1-sulfonyl)-piperazin-1-yl]-4-oxo-butyryl}-amino)-acetic Acid]: 5.4e-05 mol/L; for `O=C(CCC(=O)N1CCN(S(=O)(=O)C(F)(F)C(F)(F)C(F)(F)C(F)(F)C(F)(F)C(F)(F)C(F)(F)C(F)(F)F)CC1)Nc1c(I)c(C(=O)N(CC(O)CO)CC(O)CO)c(I)c(C(=O)N(CC(O)CO)CC(O)CO)c1I` (stereo not drawn) [Example 4 c, N,N,N′,N′-Tetrakis-(2,3-dihydroxy-propyl)-5-{4-[4-(heptadecafluorooctane-1-sulfonyl)-piperazin-1-yl]-4-oxo-butyrylamino}-2,4,6-triiodo-isophthalamide]: 5.4e-05 mol/L.
In the case of `CN(CC(O)C(O)C(O)C(O)CO)C(=O)c1c(I)c(NC(=O)COCC(=O)N2CCN(S(=O)(=O)C(F)(F)C(F)(F)C(F)(F)C(F)(F)C(F)(F)C(F)(F)C(F)(F)C(F)(F)F)CC2)c(I)c(C(=O)N(C)CC(O)C(O)C(O)C(O)CO)c1I` (stereo not drawn) [Example 5 f, 2,4,6-Triiodo-N,N′-dimethyl-5-{2-[2-oxo-2-(4-(heptadecafluorooctane-1-sulfonyl)-piperazin-1-yl]-ethoxy]-acetylamino}-N,N′-bis-(2,3,4,5,6-pentahydroxyhexyl)-isophthalamide] it was 0.00012 mol/L; in that of `CN(CC(O)C(O)C(O)C(O)CO)C(=O)c1c(I)c(C(=O)N(C)CC(O)C(O)C(O)C(O)CO)c(I)c(N(CC(=O)O)C(=O)COCC(=O)N2CCN(S(=O)(=O)C(F)(F)C(F)(F)C(F)(F)C(F)(F)C(F)(F)C(F)(F)C(F)(F)C(F)(F)F)CC2)c1I` (stereo not drawn) [Example 6 e], 6.9e-05 mol/L.
